Square brackets hold non-standard residues; d marks the D form. Peptide text beside a SMILES is read from it. NMeN = CN[C@@H](CC(N)=O)C(=O)O; Orn = NCCC[C@H](N)C(=O)O; Dab = NCC[C@H](N)C(=O)O; Sar = CNCC(=O)O
Tests used:
HT-1080 cells = assay: Relative cell uptake of Cy3 fluorescent peptides by HT-1080 cells; format: cell-based, human; conditions: Cy3 fluorescent peptide, 37° C. 30 min, multiple of KE5-Cy3 uptake taken as 1.00
Experimental: The binding affinity of the polypeptides in the examples and comparative examples to an HT-1080 cell line was identified through cell uptake studies.
The human fibrosarcoma cell line HT-1080 was cultured in Dulbecco's Modified Eagle Medium (DMEM) (Gibco) mixed with 10% sterile filtered fetal bovine serum (FBS) and 1% penicillin-streptomycin antibiotic solution. The cell culture was maintained in a controlled environment at 37° C. and 5% CO2, and subculture was performed every 3-4 days. 24 hours prior to the experiment, cells were seeded in a 96-well plate (5000 cells per well) and cultured overnight until the cells adhered to a wall. Before the experiment, cells were washed twice with […] of phosphate-buffered saline (PBS) to remove a growth medium.
Purification is performed through HPLC.
HT-1080 cells were treated with KE5-Cy3 fluorescent peptide of Comparative Example 1.
(§1) After incubation at 37° C. for 30 min, the cells were washed twice with PBS, an intracellular fluorescence intensity was measured using a fluorescence microplate reader (with an […]) to evaluate the uptake of KE5-Cy3 fluorescent peptide by HT-1080 cells.
(§2) 10 μL of CCK-8 were added to each group of cells and incubated for 4 h, the cells were then read using a microplate reader (with a wavelength of 490 nm), and errors in fluorescence intensity of each group of cells caused by difference in a number of cells was corrected by CCK-8.
Each group was subjected to the above operation three times to determine an optimal concentration for the uptake of KE5-Cy3 fluorescent peptide by HT-1080 cells.
(§3) HT-1080 cells were treated with the APN-Cy3 fluorescent peptide of each of the Examples, wherein a concentration of each APN-Cy3 fluorescent peptide was an optimal concentration determined by KE5-Cy3 fluorescent peptides of Comparative Example 1 according to the uptake by the HT-1080 cells.
as §1, with “APN-Cy3” for “KE5-Cy3”
A relative cell uptake (RCU) for each APN-Cy3 fluorescent peptide relative to the KE5-Cy3 fluorescent peptide was calculated using the following formula: […]

[1] = Stability by in vitro constant temperature (37° C.) incubation in PBS, LC-MS/MS; format: physicochemical
Experimental: (§4) The experiment was carried out by using an in vitro constant temperature (37° C.) incubation method to study the stability of the cyclic peptide APN21 of Example 21 and the cyclic peptide KE5 of Comparative Example 1 in mouse plasma or PBS (1.0 μg/mL). The two cyclic peptides were dissolved in 1 mL of mouse […], respectively, and incubated at 37° C. for 0 h, 0.5 h, 1 h, 4 h, 24 h, and 48 h, and a percentage of drug remaining was then measured and determined. PBS was used as a negative control group. Peak areas of the drug and an internal standard were measured using an LC-MS/MS method, and ratios of the peaks were used instead of the drug concentration for calculation.

[2] = Stability by in vitro constant temperature (37° C.) incubation in mouse plasma, LC-MS/MS; format: in vitro ADME
Experimental: as §4

[3] = tested on: HT-1080 tumor-bearing mice; assay: Small-animal PET/CT imaging of HT-1080 tumor-bearing mice with CD13 blocking; format: in vivo; conditions: co-injected with unlabeled NGR peptide 15 mg/kg, tail vein, 0.5, 1 and 2 hours after injection, versus unblocked APN21 Group
Experimental: HT-1080 cells were taken from normal NCr nude mice (18-25 g, 4-6 weeks old, n=3), and 2λ10^6 cells were implanted subcutaneously in right shoulders of mice in a mixture of 200 μL phosphate buffer and matrix gel (v/v, 1/1). […] PET/CT and image analysis were performed using a small-animal NovclMedcal PET/CT scanner (Novel Medical Equipment Ltd., Beijing). Maximum tangential and radial half-widths of the scanner in a center of field of view were 1.5 mm, and at an edge of the field of view were 1.8 mm. […] Static PET/CT images were obtained for 15 min at 0.5, 1, and 2 hours after intravenous injection. […] Static PET/CT images were obtained for 15 min at 0.5, 1, and 2 hours after intravenous injection. […] Static PET/CT images were obtained for 15 min at 0.5, 1, and 2 hours after intravenous injection. […] […] PET and CT images were acquired using NMSoft workstation software (Novel Medical Equipment Ltd., Beijing), and data were given as a percentage of injected dose per gram of tissue or organ (ID/g), and were determined through decay correction for each sample (standardized to a known weight of the injected dose).

[4] = target: T1, Aminopeptidase N (APN, also known as CD13) (human, UniProt P15144 2-967); assay: Cy3 fluorescence uptake by HT-1080 cells, 37 C 30 min, microplate reader, CCK-8 corrected, relative to KE5-Cy3
T1 construct: whole, on cells; The assay itself used HT-1080 cells (endogenous expression, not transfected); also called CD13 protein; CD13 receptor
T1 sequence (P15144 2-967): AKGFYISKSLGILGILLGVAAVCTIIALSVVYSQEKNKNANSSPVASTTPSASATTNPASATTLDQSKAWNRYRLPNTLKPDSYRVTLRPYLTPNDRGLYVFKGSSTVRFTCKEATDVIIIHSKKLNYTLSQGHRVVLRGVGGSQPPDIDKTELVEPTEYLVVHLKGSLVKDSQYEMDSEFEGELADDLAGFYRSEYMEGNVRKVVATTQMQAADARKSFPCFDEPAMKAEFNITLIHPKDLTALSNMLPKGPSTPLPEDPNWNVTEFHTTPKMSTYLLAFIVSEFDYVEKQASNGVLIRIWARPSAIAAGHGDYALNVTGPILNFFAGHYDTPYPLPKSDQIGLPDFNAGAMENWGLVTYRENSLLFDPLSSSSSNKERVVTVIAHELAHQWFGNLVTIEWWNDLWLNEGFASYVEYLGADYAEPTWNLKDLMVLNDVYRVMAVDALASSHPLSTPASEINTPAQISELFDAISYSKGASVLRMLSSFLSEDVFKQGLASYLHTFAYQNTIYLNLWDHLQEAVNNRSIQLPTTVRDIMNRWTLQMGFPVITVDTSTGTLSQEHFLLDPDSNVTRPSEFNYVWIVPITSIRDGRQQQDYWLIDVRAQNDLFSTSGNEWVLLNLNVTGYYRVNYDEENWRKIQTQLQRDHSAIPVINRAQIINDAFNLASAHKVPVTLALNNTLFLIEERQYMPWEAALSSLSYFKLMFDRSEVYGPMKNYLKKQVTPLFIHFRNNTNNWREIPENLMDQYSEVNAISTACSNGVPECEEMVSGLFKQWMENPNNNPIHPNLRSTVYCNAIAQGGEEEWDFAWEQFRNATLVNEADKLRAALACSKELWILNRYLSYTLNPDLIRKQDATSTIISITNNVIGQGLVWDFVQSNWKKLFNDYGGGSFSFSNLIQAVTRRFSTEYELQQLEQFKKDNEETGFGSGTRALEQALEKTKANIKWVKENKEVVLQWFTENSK
Experimental: as §3
as §1, with “APN-Cy3” for “KE5-Cy3”
as §2

[5] = 0.5 h, read-out: percentage of drug remaining
[6] = 1 h, read-out: percentage of drug remaining
[7] = 4 h, read-out: percentage of drug remaining
[8] = 24 h, read-out: percentage of drug remaining
[9] = 48 h, read-out: percentage of drug remaining

| Molecule | RCU (relative cell uptake) (HT-1080 cells) | further results |
| --- | --- | --- |
| cyclo(NmeGRTDabY) (cyclo([NMeN]GRT[Dab]Y); SMILES C[C@@H](O)[C@@H]1NC(=O)[C@H](CCCNC(=N)N)NC(=O)CNC(=O)[C@H](CC(N)=O)N(C)C(=O)[C@H](Cc2ccc(O)cc2)NC(=O)[C@H](CCN)NC1=O) [Example 26] | 0.41 |  |
| N=C(N)NCCC[C@@H]1NC(=O)CNC(=O)[C@H](CC(N)=O)NC(=O)[C@H](CCCCN)NC(=O)[C@H](CCC(=O)O)NC1=O [Comparative Example 1, cyclo(NGREK), reference compound] (cyclo(EKNGR)) |  | percentage of drug remaining ([1]; 0 h): 100%; remaining at 0.5 h, 1 μg/mL [1, 5]: 99.1%; remaining at 1 h, 1 μg/mL [1, 6]: 96.6%; remaining at 4 h, 1 μg/mL [1, 7]: 91.4%; remaining at 24 h, 1 μg/mL [1, 8]: 73.4%; remaining at 48 h, 1 μg/mL [1, 9]: 42.7%; percentage of drug remaining ([2]; 0 h): 100%; remaining at 0.5 h, 1 μg/mL [2, 5]: 94.8%; remaining at 1 h, 1 μg/mL [2, 6]: 89.4%; remaining at 4 h, 1 μg/mL [2, 7]: 80.2%; remaining at 24 h, 1 μg/mL [2, 8]: 39.8%; remaining at 48 h, 1 μg/mL [2, 9]: 12.4% |
| cyclo(NmeGRTKY) (cyclo([NMeN]GRTKY); SMILES C[C@@H](O)[C@@H]1NC(=O)[C@H](CCCNC(=N)N)NC(=O)CNC(=O)[C@H](CC(N)=O)N(C)C(=O)[C@H](Cc2ccc(O)cc2)NC(=O)[C@H](CCCCN)NC1=O) [Example 20] | 0.78 |  |
| ^68Ga-APN21-Bn-SCN-NOTA: ^68Ga-labelled conjugate of cyclic peptide APN21 (Example 21) with NOTA-Bn-SCN chelator (cyclo(N[Sar]RTKY); not fully specified (residue 5); also: 68Ga-NOTA-Bn-SCN chelator conjugated, site not given here) |  | PET/CT signal intensity (tumor uptake) in APN21-Blocking Group [3]: significantly weaker than that of the unblocked APN21 group |
| cyclo(NGRTKf) (cyclo(NGRTK[dF]); SMILES C[C@@H](O)[C@@H]1NC(=O)[C@H](CCCNC(=N)N)NC(=O)CNC(=O)[C@H](CC(N)=O)NC(=O)[C@@H](Cc2ccccc2)NC(=O)[C@H](CCCCN)NC1=O) [Example 17] | 0.49 |  |
| cyclo(NGRDK) (cyclic; circular) [Example 1] | 0.65 |  |
| cyclo(NmeGRTOrnY) (cyclo([NMeN]GRT[Orn]Y); SMILES C[C@@H](O)[C@@H]1NC(=O)[C@H](CCCNC(=N)N)NC(=O)CNC(=O)[C@H](CC(N)=O)N(C)C(=O)[C@H](Cc2ccc(O)cc2)NC(=O)[C@H](CCCN)NC1=O) [Example 27] | 0.37 |  |
| cyclo(NmeGRTcY) (cyclo([NMeN]GRT[dC]Y)) [Example 28] | 0.62 |  |
| cyclo(NSarRTDabY) (cyclo(N[Sar]RT[Dab]Y); SMILES C[C@@H](O)[C@@H]1NC(=O)[C@H](CCCNC(=N)N)NC(=O)CN(C)C(=O)[C@H](CC(N)=O)NC(=O)[C@H](Cc2ccc(O)cc2)NC(=O)[C@H](CCN)NC1=O) [Example 24] | 0.57 |  |
| cyclo(NSarRTOrnY) (cyclo(N[Sar]RT[Orn]Y); SMILES C[C@@H](O)[C@@H]1NC(=O)[C@H](CCCNC(=N)N)NC(=O)CN(C)C(=O)[C@H](CC(N)=O)NC(=O)[C@H](Cc2ccc(O)cc2)NC(=O)[C@H](CCCN)NC1=O) [Example 23] | 1.20 |  |
| cyclo(NSarRTcY) (cyclo(N[Sar]RT[dC]Y); SMILES C[C@@H](O)[C@@H]1NC(=O)[C@H](CCCNC(=N)N)NC(=O)CN(C)C(=O)[C@H](CC(N)=O)NC(=O)[C@H](Cc2ccc(O)cc2)NC(=O)[C@@H](CS)NC1=O) [Example 25] | 0.72 |  |
| cyclo(NGRTKF) (cyclic; circular) [Example 7] | 0.56 |  |
| cyclo(NGRTCY) (cyclic; circular) [Example 14] | 1.05 |  |
| cyclo(NGRTKG) (cyclic; circular) [Example 8] | 1.14 |  |
| cyclo(NGRTCG) (cyclic; circular) [Example 13] | 0.49 |  |
| cyclo(NGRTCV) (cyclic; circular) [Example 11] | 0.92 |  |
| cyclo(NGRTCE) (cyclic; circular) [Example 10] | 0.77 |  |
| cyclo(NGRTCF) (cyclic; circular) [Example 12] | 0.82 |  |
| cyclo(N[Sar]RTKY) (not fully specified (residue 5); also: Cy3 dye attached via Cy3-NHS, site not given here, also called cyclo(NSarRTKY)) [APN21-Cy3 fluorescent peptide (Example 21)] |  | RCU (relative cell uptake, KE5-Cy3 = 1.00) [4]: 5.68 fold of KE5-Cy3 |

From patent publication US20260061085A1, “CYCLIC PEPTIDE AND PREPARATION METHOD THEREFOR, AND COMPLEX COMPRISING SAME AND USE THEREOF” (HEXIN (SUZHOU) PHARMACEUTICAL TECHNOLOGY CO., LTD., priority 2022, published 2026)
